According to PMC4232273 (Angewandte Chemie (International Ed. in English), 2014):

Biological target: New Delhi metallo-β-lactamase subclass 1 (NDM-1) (Klebsiella pneumoniae, UniProt C7C422)
Experiment: 1H NMR monitoring of hydrolysis in E. coli cells expressing NDM-1
Type: cell-based

New Delhi metallo-β-lactamase subclass 1 (NDM-1), sequence (C7C422 29-270, looked up): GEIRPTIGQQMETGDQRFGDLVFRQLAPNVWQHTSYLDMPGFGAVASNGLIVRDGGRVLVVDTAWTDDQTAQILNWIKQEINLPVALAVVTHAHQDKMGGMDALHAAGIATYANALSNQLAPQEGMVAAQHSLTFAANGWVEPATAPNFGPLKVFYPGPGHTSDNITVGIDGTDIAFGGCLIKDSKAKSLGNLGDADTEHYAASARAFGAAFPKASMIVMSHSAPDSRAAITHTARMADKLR

For `C[C@@H](O)[C@H]1C(=O)N2C(C(=O)O)=C(SCCN=CN)C[C@H]12` [imipenem], the “1H NMR monitoring of hydrolysis in E. coli cells expressing NDM-1” value was “These were readily hydrolyzed by the NDM-1 E. coli cells within an hour or so under our experimental conditions”.
